Test results published in patent publication US20260365684A1, “PHYTOSPHINGOSINE-3,4-CYCLICPHOSPHATE COMPOUND AND PHARMACEUTICAL COMPOSITION COMPRISING THE SAME” (AXCESO BIOPHARMA CO., LTD., priority 2022, published 2026).

Key:
[1] = test system: amyloid beta monomer (monomeric Aβ, mAβ); assay: Expression of mAβ in brain of AD-induced animal model by fluorescence microscopy; assay type: in vivo; details: mouse brain, 1 mg/kg i.p. once every 3 days for 2 weeks, FIG. 3
Method: To determine the therapeutic effect on Alzheimer's Disease (AD), the effects on amyloid beta monomer (monomeric Aβ, mAβ) and Tau protein, which are biomarkers of AD, were analyzed in an AD-induced animal model.
APP/PS/Tau transgenic mice were used as an AD-induced animal model. The compound of formula (1a-1) was administered intraperitoneally once every 3 days at a concentration of 1 mg/kg to 12-week-old transgenic mice for 2 weeks, and the expression of mAβ and Tau proteins in the mouse brain was measured after 1 and 4 weeks. After anesthetizing the mouse, the cervical region was incised with a dissecting tool, and then the occipital region was incised to remove both sides of the skull. The brain was washed with phosphate buffered saline (PBS) and fixed with 4% paraformaldehyde (Sigma, St Louis, MO, USA) for 12 hours at 4 °C. These were cut to a thickness of approximately 10 μm using a vibratome, and hippocampus and cortex sections were collected and placed in 24 wells. PBS was added to the wells containing the fixed tissue sections, and fluorescent nanoparticles (QD565, red fluorescence) conjugated with anti-amyloid antibodies and anti-Tau antibodies (Santa Cruz, USA) were added to each 2 μM, and reacted at 4 °C for 12 hours. The expression of mAβ and Tau was confirmed by fluorescence microscopy.

[2] = test system: tyrosine hydroxylase (TH); assay: Differentiation of pluripotent stem cells into dopaminergic neurons: tyrosine hydroxylase expression; assay type: cell-based
Method: Pluripotent stem cells were seeded in Aggre Well plates (stemcell) at 5,000 cells/microwell and cultured for 5 days in E6 medium (GIBCO) to induce embryonic body (EB) formation. For neural rosette formation, EBs were seeded into 35 mm dishes in groups of 30 and cultured for 10 days in N2bF medium. The 35 mm dishes were used after being coated with 15 μg/ml of poly-L-ornithine (sigma) and 1 μg/ml of fibronectin (sigma). The N2Bf medium composition was DMEM/F12 (GIBCO), N2 supplement (stemcell) 1×, 10% NEAA (GIBCO), 55 µM beta-Mercaptoethanol (GIBCO), bFGF (peprotech) 20 ng/ml. For the formation of spherical neural masses (SNMs), rosette masses were sliced and cultured in petri dishes with N2bF medium. SNMs were no larger than 500 UM in size and were sliced and cultured for 3 to 4 passages. After subculture of SNM, the clumps were broken into small pieces using a tungsten mesh (Nilaco) for the neural progenitor cell (NPC) culture step, and then attached to a PLO/FN-coated dish and cultured in N2bF medium. To differentiate NPCs into dopaminergic neurons, the medium was replaced with an ITS-B27 medium after 2 days of NPC culture. The ITS-B27 medium composition was DMEM/F12 (GIBCO), D-(+)-glucose (sigma) 1.5 mg/ml, insulin (wako) 5 μg/ml, transferrin (wako) 50 μg/ml, selenite (sigma) 30 nM, GlutaMAX (GIBCO) 2.5%, and B27 (GIBCO) 1×. After 4 days of NPC culture, 200 ng/ml of Sonic Hedgehog and 100 ng/ml of FGF8 (peprotech) were added to the ITS-B27 medium. After 6 days of NPC culture, 200 ng/ml of Sonic Hedgehog, 20 ng/ml of GDNF, 20 ng/ml of BDNF (peprotech), 200 µM of ascorbic acid, and 500 μM of cAMP (sigma) were added to the ITS-B27 medium and cultured for approximately 5 weeks. The compound of formula (1a-1) was treated starting from the stage 2 days after NPC culture. […]
(§1) The effect of the compound of formula (1a-1) on differentiation into neurons was evaluated by comparing the expression of tyrosine hydroxylase (TH) and dopamine transporter (DAT) depending on the presence or absence of treatment with the compound of formula (1a-1).

[3] = test system: dopamine transporter (DAT); assay: Differentiation of pluripotent stem cells into dopaminergic neurons: dopamine transporter; assay type: cell-based; details: 5-week differentiation sample, FIG. 5B
Method: Pluripotent stem cells were seeded in Aggre Well plates (stemcell) at 5,000 cells/microwell and cultured for 5 days in E6 medium (GIBCO) to induce embryonic body (EB) formation. For neural rosette formation, EBs were seeded into 35 mm dishes in groups of 30 and cultured for 10 days in N2bF medium. The 35 mm dishes were used after being coated with 15 μg/ml of poly-L-ornithine (sigma) and 1 μg/ml of fibronectin (sigma). The N2Bf medium composition was DMEM/F12 (GIBCO), N2 supplement (stemcell) 1×, 10% NEAA (GIBCO), 55 µM beta-Mercaptoethanol (GIBCO), bFGF (peprotech) 20 ng/ml. For the formation of spherical neural masses (SNMs), rosette masses were sliced and cultured in petri dishes with N2bF medium. SNMs were no larger than 500 UM in size and were sliced and cultured for 3 to 4 passages. After subculture of SNM, the clumps were broken into small pieces using a tungsten mesh (Nilaco) for the neural progenitor cell (NPC) culture step, and then attached to a PLO/FN-coated dish and cultured in N2bF medium. […]
as §1

[4] = test system: tyrosine hydroxylase (TH); assay: Tyrosine hydroxylase expression in differentiated SH-SY5Y dopaminergic neurons by western blot; assay type: cell-based, human; details: FIG. 6
Method: To analyze the effect on the expression of tyrosine hydroxylase (TH) and α-synuclein as neuron-specific proteins, western blot was performed.
SH-SY5Y cell line was treated with retinoic acid and 12-O-tetradecanoylphorbol-13-acetate (TPA) to induce differentiation into TH-secreting neurons for 6 days.
Differentiated dopaminergic neurons were lysed in PRO-PREP (Intronbio), a cell lysis solution containing protease inhibitor cocktail (Gendepot), and electrophoresed in 10% SDS polyacrylamide gels at 20 μg/well. Transfer was performed using PVDF (Merck millipore) as a membrane, and tyrosine hydroxylase antibody, «-synuclein antibody (Cell signaling), and β-actin antibody (Santa Cruz) were used for reaction for more than 2 hours. Protein expression was detected by staining with ECL substrate (Biorad) for development and graphed using the image J program.

[5] = test system: lungs of mice; assay: Acute respiratory distress syndrome induced by CLP: lung histology, lung injury score, wet-to-dry weight ratio; assay type: in vivo, mouse; details: treated at 6 and 16 hours after CLP, lungs harvested at 18 hours
Method: CLP induces pulmonary edema due to increased inflammation and disruption of the vascular barrier, resulting in acute respiratory distress syndrome (ARDS). To determine the effect on ARDS, the compound of formula (1a-1) was treated at 6 and 16 hours after CLP treatment in the same manner as in Experimental Example 7 above, the lungs of mice were harvested at 18 hours for histological analysis, and the wet-to-dry weight ratio of the lungs was obtained. For comparison, mice without CLP treatment served as a control group.
For histologic analysis, the harvested lungs were fixed in 10% paraformaldehyde, infiltrated with paraffin, sectioned into 5 μm-thick tissues, and then de-paraffinized with xylene. Sectioned tissues were mounted on slides, stained with H&E, and observed under an optical microscope. In addition, the lung tissue damage was evaluated by histological score to obtain the lung injury score (LIS) for each group.
To calculate the wet-to-dry weight ratio, lung organs were harvested 18 hours after CLP treatment, and the wet weight was measured immediately after harvesting, and the dry weight was measured after drying in an oven at 60 °C for 48 hours to calculate the wet-to-dry weight ratio. The wet-to-dry weight ratio is used as an indicator of organ edema formation.

[6] = test system: TNF-α; assay: TNF-α in serum after CLP treatment by ELISA; assay type: in vivo, mouse; details: serum at 18 hours, treated at 6 and 16 hours after CLP; FIG. 10
Method: After CLP treatment, the inflammatory cytokines TNF-α and IL-6 were analyzed by ELISA.
Specifically, after treating the compound of formula (1a-1) at 6 and 16 hours after CLP treatment, mouse blood was collected at 18 hours and allowed to stand at room temperature for 1 hour, then centrifuged at 3000 rpm for 10 minutes to obtain serum to analyze the amount of TNF-α and IL-6.

CCCCCCCCCCCCCC[C@H]1OP(=O)(O)O[C@H]1[C@@H](N)CO.Cl [formula (1a-1), (4S,5R)-4-((S)-1-amino-2-hydroxyethyl)-2-hydroxy-5-tetradecyl-1,3,2-dioxaphosphoran-2-oxide hydrochloride]
red fluorescence for mAβ ([1]; 1 week and 4 weeks after): negligible red fluorescence for mAβ and Tau | expression of amyloid [1]: significantly reduced | TH expression (western blot) ([2]; 5-week differentiation sample, FIG. 5B): TH expression is increased | expression of TH (cell fluorescence immunostaining) ([2]; FIG. 5A): the expression of TH increased | time at which TH expression was elevated ([2]; FIG. 5A, TH expression otherwise increases after more than 5 weeks of differentiation): ≤ 3 weeks | DAT glycosylation (western blot) [3]: DAT glycosylation is increased | expression of TH ([4]; differentiated dopaminergic neurons treated with rotenone (RT)): the expression of TH decreased by rotenone was restored | effectiveness relative to resveratrol (control drug), TH expression ([4]; rotenone-treated differentiated dopaminergic neurons): more effective than resveratrol | lung tissue damage (histology, H&E) ([5]; FIG. 9A): the lung tissue is almost restored to normal | lung injury score (LIS) ([5]; FIG. 9B): almost restores the lung injury score to normal | wet-to-dry weight ratio of the lung ([5]; FIG. 9C): restores the wet-to-dry weight ratio of the lung to normal | amount of TNF-α [6]: significantly decreased
